From patent US20060177430A1, “Treatment of ocular disorders with ophthalmic formulations containing methylsulfonylmethane as a transport enhancer” (Chakshu Research Inc, priority 2002, published 2006) come the findings set out here.

≈ marks a conversion by molar mass, not a printed value. Read-outs that look alike come from different tables or passages of the source.

The nature of data set [1]: Intestinal membrane permeation, MSM as enhancer, methylene blue as active (Example 8). The format is in vitro ADME, porcine. The text has this: In this experiment we selected methylene blue as the species for which permeation enhancement was desired. As tissue model for this experiment we selected porcine intestinal membrane. A small glass vial was filled with test solution and capped with the test membrane (tissue layer of defined thickness). The membrane tissue was hold in place with a rubber O-ring and a screw cap of defined surface area opening. This test unit was immersed into a large glass vial filled with receptor medium. From this large glass vial, small sample receptor medium volumes were periodically removed for analysis.

A short description of data set [2]: Bovine cornea penetration, MSM as enhancer, methylene blue as active (Example 9). It counts as in vitro ADME. The text has this: In this example the same principal study design and protocol was used as described in Example 8. In this experiment, we selected methylene blue again as the species for which permeation enhancement was desired; however, as tissue model we selected bovine cornea. The bovine cornea was dissected from bovine eyes procured from slaughterhouses. We selected bovine cornea tissue as the test membrane because it is known to be a very difficult membrane to penetrate. Bovine cornea is about 4-6 times thicker than the human corneal membrane.

Data set [3] in a line: Methylene blue permeation through MSM pre-treated porcine intestinal membrane (Example 17). It counts as in vitro ADME. The method, then: This experiment was designed to investigate if there is a long-lasting enhancement effect of MSM, i.e., if there is a long-lasting disruption of membrane permeability after the formula was removed or washed-out after application.
Methylene blue was the active. The tissue model was porcine intestinal membrane, which was pre-treated. In this experiment all membranes were soaked for 24 hours in a MSM containing pre-treatment solution. […] After the 24-hour soaking period, “Test A” membrane was thoroughly washed, while “Test B” membrane was only briefly rinsed. Those membrane specimens were then mounted as described earlier on methylene blue containing glass vials, which were then immersed as described earlier into a larger glass vial containing receptor medium containing. Only the MSM-enhanced donor solution contained, besides methylene blue, also MSM for enhancement purposes. • Control: No MSM in 24-hour pre-treatment, no MSM enhancer in donor • Test A: 24-hour MSM pretreatment w/thorough washing, no MSM enhancer • Test B: 24-hour MSM pretreatment w/brief rinsing, no MSM enhancer • MSM-enhanced: No MSM in 24-hour pre-treatment, w/MSM enhancer

For data set [4] the following is noted: 30-minute time point; 8 μl eye drop on rat cornea; MSM versus PBS.
Data set [5] can be described thus: Dexamethasone solubility experiment with increasing MSM concentration (Example 16). It counts as physicochemical.
Data set [6] is described as follows: Intestinal membrane permeation, MSM as enhancer, dexamethasone as active (Example 15). The format is in vitro ADME.
From the text: The same study design and experimental setup was used as described in the above experiments.

Turning to `CN(C)c1ccc2nc3ccc(=[N+](C)C)cc-3sc2c1` [methylene blue], the “enhancement factor of cumulative permeation when MSM is present in the donor solution” value is on record as approximately 2 in data set [1] (MSM 27 mg/mL versus control) and more than 3 in data set [2] (MSM 27 mg/mL versus control). In addition, the “Absorbance at 668 nm of receptor medium (methylene blue permeation)” value in data set [1] (Time 0.55 Hr, Control: no MSM) stood at 0.021; in data set [1] (Time 0.55 Hr, MSM 27 mg/mL in donor), 0.023; in data set [1] (Time 1.9 Hr, Control: no MSM), 0.061; in data set [1] (Time 1.9 Hr, MSM 27 mg/mL in donor), 0.176; in data set [1] (Time 2.9 Hr, Control: no MSM), 0.162; in data set [1] (Time 2.9 Hr, MSM 27 mg/mL in donor), 0.323. The “Absorbance at 668 nm of receptor medium (methylene blue permeation)” value was determined as 0.234 in data set [1] (Time 4 Hr, Control: no MSM); 0.433 in data set [1] (Time 4 Hr, MSM 27 mg/mL in donor); 0.283 in data set [1] (Time 5.7 Hr, Control: no MSM); 0.563 in data set [1] (Time 5.7 Hr, MSM 27 mg/mL in donor); 0.408 in data set [1] (Time 6.9 Hr, Control: no MSM); 0.738 in data set [1] (Time 6.9 Hr, MSM 27 mg/mL in donor). Further, the figures for the lag time entry in data set [2] (MSM present in the donor solution) and in data set [2] (without MSM) were “less than 12 hours” and “about 24 hours”, respectively. Further, the “Absorbance @ 668 nm of receptor medium (methylene blue permeation)” value (shortened to “Absorbance @ 668 nm of receptor medium”) in data set [2] (Time 43.5 Hr, Control: no MSM) is reported as 0.024; in data set [2] (Time 43.5 Hr, MSM 27 mg/mL in donor) it was 0.093; in data set [2] (Time 52.75 Hr, Control: no MSM), 0.03; in data set [2] (Time 52.75 Hr, MSM 27 mg/mL in donor), 0.13; in data set [2] (Time 65 Hr, Control: no MSM), 0.035; in data set [2] (Time 65 Hr, MSM 27 mg/mL in donor) it was 0.163. For the same molecule, the “Absorbance @ 668 nm of receptor medium” value in data set [2] (Time 75.5 Hr, Control: no MSM) is recorded as 0.042; in data set [2] (Time 75.5 Hr, MSM 27 mg/mL in donor) it was 0.195; in data set [2] (Time 89 Hr, Control: no MSM), 0.057; in data set [2] (Time 89 Hr, MSM 27 mg/mL in donor), 0.213; in data set [2] (Time 97.5 Hr, Control: no MSM), 0.076; in data set [2] (Time 97.5 Hr, MSM 27 mg/mL in donor), 0.265. Moreover, the “Absorbance @ 668 nm of receptor medium” value in data set [3] (Time 0.27, Control: no MSM pre-treatment, no MSM enhancer) was 0.01; in data set [3] (Time 0.27, Test A: MSM pretreatment w/thorough washing, no MSM enhancer) it was 0.01; in data set [3] (Time 0.27, Test B: MSM pretreatment w/brief rinsing, no MSM enhancer) it was 0.019; in data set [3] (Time 0.50, Control: no MSM pre-treatment, no MSM enhancer), 0.025; in data set [3] (Time 0.50, MSM-enhanced: no pre-treatment, MSM 50 mg/mL in donor), 0.06; in data set [3] (Time 0.50, Test A: MSM pretreatment w/thorough washing, no MSM enhancer), 0.031. The “Absorbance @ 668 nm of receptor medium” value in data set [3] (Time 0.50, Test B: MSM pretreatment w/brief rinsing, no MSM enhancer) turned out to be 0.041; in data set [3] (Time 0.75, Control: no MSM pre-treatment, no MSM enhancer), 0.037; in data set [3] (Time 0.75, Test A: MSM pretreatment w/thorough washing, no MSM enhancer) it was 0.043; in data set [3] (Time 0.75, Test B: MSM pretreatment w/brief rinsing, no MSM enhancer), 0.055; in data set [3] (Time 1.00, Control: no MSM pre-treatment, no MSM enhancer) it was 0.052; in data set [3] (Time 1.00, MSM-enhanced: no pre-treatment, MSM 50 mg/mL in donor), 0.13. Further, the “Absorbance @ 668 nm of receptor medium” value in data set [3] (Time 1.00, Test A: MSM pretreatment w/thorough washing, no MSM enhancer) was found to be 0.064; in data set [3] (Time 1.00, Test B: MSM pretreatment w/brief rinsing, no MSM enhancer), 0.079; in data set [3] (Time 1.50, Control: no MSM pre-treatment, no MSM enhancer), 0.078; in data set [3] (Time 1.50, MSM-enhanced: no pre-treatment, MSM 50 mg/mL in donor), 0.204; in data set [3] (Time 1.50, Test A: MSM pretreatment w/thorough washing, no MSM enhancer), 0.089; in data set [3] (Time 1.50, Test B: MSM pretreatment w/brief rinsing, no MSM enhancer), 0.118. In addition, the “Absorbance @ 668 nm of receptor medium” value was determined as 0.114 in data set [3] (Time 2.00, Control: no MSM pre-treatment, no MSM enhancer); 0.281 in data set [3] (Time 2.00, MSM-enhanced: no pre-treatment, MSM 50 mg/mL in donor); 0.125 in data set [3] (Time 2.00, Test A: MSM pretreatment w/thorough washing, no MSM enhancer); 0.16 in data set [3] (Time 2.00, Test B: MSM pretreatment w/brief rinsing, no MSM enhancer); 0.92 in data set [3] (Time 24.00, Control: no MSM pre-treatment, no MSM enhancer); 1.393 in data set [3] (Time 24.00, MSM-enhanced: no pre-treatment, MSM 50 mg/mL in donor). The “Absorbance @ 668 nm of receptor medium” value is 0.939 in data set [3] (Time 24.00, Test A: MSM pretreatment w/thorough washing, no MSM enhancer) and 1.112 in data set [3] (Time 24.00, Test B: MSM pretreatment w/brief rinsing, no MSM enhancer). The “permeation rate of enhanced solution relative to control” value in data set [3] (MSM 50 mg/mL in donor) is reported as “approximately 2 times”. Also, the “permeation through MSM-pretreated membrane versus control” value in data set [3] (MSM pretreatment, brief rinsing, no MSM in donor) is “slightly higher”. In addition, in data set [3] (MSM pretreatment, thorough washing, no MSM in donor), the “remaining enhancement after thorough washing of MSM-pretreated membrane” value is “no detectable remaining enhancement effect”.
Consider `O=C([O-])CN(CC(=O)[O-])[14CH2][14CH2]N(CC(=O)[O-])CC(=O)[O-].[Na+].[Na+].[Na+].[Na+]` [^14C-EDTA, Ethylenediamine tetraacetic acid-1,2-^14C tetrasodium], for which, in data set [4], the “increase in amount in the aqueous humor in the presence of MSM” value is “approximately 5 fold”.
For the molecule `C[C@@H]1C[C@H]2[C@@H]3CCC4=CC(=O)C=C[C@]4(C)[C@@]3(F)[C@@H](O)C[C@]2(C)[C@@]1(O)C(=O)CO` [dexamethasone], the solubility in data set [5] (MSM concentration 250 mg/mL) turned out to be 45 mg/100 mL; in data set [5] (MSM solution, aqueous with cosolvent or surfactant or cyclodextrin, MSM 30 mg/ml, read-out: Solubility of Dexamethasone) it was 160 µg/mL (≈ 408 µM); in data set [5] (MSM solution, aqueous with cosolvent or surfactant or cyclodextrin, MSM 50 mg/ml, read-out: Solubility of Dexamethasone) it was 175 µg/mL (≈ 446 µM); in data set [5] (MSM solution, aqueous with cosolvent or surfactant or cyclodextrin, MSM 100 mg/ml, read-out: Solubility of Dexamethasone), 190 µg/mL (≈ 484 µM); in data set [5] (MSM solution, aqueous with cosolvent or surfactant or cyclodextrin, MSM 150 mg/ml, read-out: Solubility of Dexamethasone), 270 µg/mL (≈ 688 µM); in data set [5] (MSM solution, aqueous with cosolvent or surfactant or cyclodextrin, MSM 200 mg/ml, read-out: Solubility of Dexamethasone), 340 µg/mL (≈ 866 µM). Besides, the solubility in data set [5] (MSM solution, aqueous with cosolvent or surfactant or cyclodextrin, MSM 250 mg/ml, read-out: Solubility of Dexamethasone) was found to be 450 µg/mL (≈ 1150 µM). Besides, the solubility change result in data set [5] (MSM concentration of 30 mg/mL) is given as “not significantly increased”. The molecule also had a water solubility in data set [5] (room temperature, no MSM) of 10 mg/100 mL. For the same molecule, in data set [6] (27 mg MSM/ml), the “increase on the diffusion rate” value was found to be 25%. For the same molecule, in data set [6] (200 mg MSM/mL), the “permeation increase over control” value is reported as “approximately 50%”.
